Assay results reported in patent US7759337B2, “Phthalazine compounds and methods of use” (Amgen Inc., priority 2005, dated 2010).

Tested on: production of TNF by monocytes activated with bacterial lipopolysaccharide (LPS)
Assay: Lipopolysaccharide-activated monocyte TNF production assay
Assay type: cell-based
Settings: Homo sapiens; whole blood monocyte assay (LPS induced TNF release)
Summary of the method: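 Adherent human PBMC-derived monocytes preincubated 60 min with nine two-fold compound dilutions, then stimulated with E. coli K532 LPS (30 ng/mL in the added medium) for 4 h at 37 °C. Supernatant TNF measured by sandwich ELISA; IC50 is the compound concentration halving TNF production, from second-order polynomial fits.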

SMILES | IC50 [µM]
Cc1ccc(C(=O)NC2CC2)cc1-c1ccc2c(N3CCC[C@H]3CO)nncc2c1 [Example 151, N-cyclopropyl-3-{1-[(2S)-2-(hydroxymethyl)pyrrolidin-1-yl]phthalazin-6-yl}-4-methylbenzamide] | ≤ 5
Cc1ccc(C(=O)NC2CC2)cc1-c1ccc2c(N3CCC(C)(O)CC3)nncc2c1 [Example 152, N-cyclopropyl-3-[1-(4-hydroxy-4-methylpiperidin-1-yl)phthalazin-6-yl]-4-methylbenzamide] | ≤ 5
Cc1ccc(C(=O)NC2CC2)cc1-c1ccc2c(C3=CCN(C(=O)OC(C)(C)C)CC3)nncc2c1 [Example 153, tert-butyl 4-(6-{5-[(cyclopropylamino)carbonyl]-2-methylphenyl}phthalazin-1-yl)-3,6-dihydropyridine-1(2H)-carboxylate] | ≤ 5
Cc1ccc(C(=O)NC2CC2)cc1-c1ccc2c(N3CCC[C@@H]4CCCC[C@@H]43)nncc2c1 [Example 154, 3-{1-[(4aS,8aS)-octahydroquinolin-1(2H)-yl]phthalazin-6-yl}-N-cyclopropyl-4-methylbenzamide] | ≤ 5
Cc1ccc(C(N)=O)cc1-c1ccc2c(OC(C)C)nncc2c1 [Example 155, 3-(1-isopropoxyphthalazin-6-yl)-4-methylbenzamide] | ≤ 5
Cc1ccc(C(N)=O)cc1-c1ccc2c(-c3ccccc3Cl)nncc2c1 [Example 156, 3-[1-(2-chlorophenyl)phthalazin-6-yl]-4-methylbenzamide] | ≤ 5
CC(=O)N1CCN(c2nncc3cc(-c4cc(C(=O)NC5CC5)ccc4C)ccc23)CC1 [Example 157, 3-[1-(4-acetylpiperazin-1-yl)phthalazin-6-yl]-N-cyclopropyl-4-methylbenzamide] | ≤ 5
Cc1ccc(C(=O)NC2CC2)cc1-c1ccc2c(NC3CCCCC3)nncc2c1 [Example 158, 3-[1-(cyclohexylamino)phthalazin-6-yl]-N-cyclopropyl-4-methylbenzamide] | ≤ 5
Cc1ccc(C(=O)NC2CC2)cc1-c1ccc2c(N3CCCCC3)nncc2c1 [Example 159, N-cyclopropyl-4-methyl-3-(1-piperidin-1-ylphthalazin-6-yl)benzamide] | ≤ 5
Cc1ccc(C(=O)NC2CC2)cc1-c1ccc2c(N3CCO[C@@H](CO)C3)nncc2c1 [Example 160, N-cyclopropyl-3-{1-[(2R)-2-(hydroxymethyl)morpholin-4-yl]phthalazin-6-yl}-4-methylbenzamide] | ≤ 5
Cc1ccc(C(=O)NC2CC2)cc1-c1ccc2c(N3CCN(c4c(C)cccc4C)CC3)nncc2c1 [Example 162, N-cyclopropyl-3-{1-[4-(2,6-dimethylphenyl)piperazin-1-yl]phthalazin-6-yl}-4-methylbenzamide] | ≤ 5
Cc1ccc(C(=O)NC2CC2)cc1-c1ccc2c(N3CCNC(=O)C3)nncc2c1 [Example 163, N-cyclopropyl-4-methyl-3-[1-(3-oxopiperazin-1-yl)phthalazin-6-yl]benzamide] | ≤ 5
Cc1ccc(C(=O)NC2CC2)cc1-c1ccc2c(Cl)nncc2c1 [Example 164, 3-(1-chlorophthalazin-6-yl)-N-cyclopropyl-4-methylbenzamide] | ≤ 5
Cc1ccc(C(=O)NC2CC2)cc1-c1ccc2c(N3CCNCC3)nncc2c1 [Example 165, N-cyclopropyl-4-methyl-3-(1-piperazin-1-ylphthalazin-6-yl)benzamide] | ≤ 5
Cc1ccc(C(=O)NC2CC2)cc1-c1ccc2c(N3CC[C@@H](O)C3)nncc2c1 [Example 166, N-cyclopropyl-3-{1-[(3R)-3-hydroxypyrrolidin-1-yl]phthalazin-6-yl}-4-methylbenzamide] | ≤ 5
Cc1ccc(C(=O)NC2CC2)cc1-c1ccc2c(N3CCC4(CC3)OCCO4)nncc2c1 [Example 167, N-cyclopropyl-3-[1-(1,4-dioxa-8-azaspiro[4.5]dec-8-yl)phthalazin-6-yl]-4-methylbenzamide] | ≤ 5

SMILES | IC50 [µM]
Cc1ccc(C(=O)NC2CC2)cc1-c1ccc2c(OC(C)C)nncc2c1 [Example 168, N-cyclopropyl-3-(1-isopropoxyphthalazin-6-yl)-4-methylbenzamide] | ≤ 5
COc1nncc2cc(-c3cc(C(=O)NC4CC4)ccc3C)ccc12 [Example 169, N-cyclopropyl-3-(1-methoxyphthalazin-6-yl)-4-methylbenzamide] | ≤ 5
Cc1ccc(C(=O)NC2CC2)cc1-c1ccc2c(-c3ccccc3Cl)nncc2c1 [Example 170, 3-[1-(2-chlorophenyl)phthalazin-6-yl]-N-cyclopropyl-4-methylbenzamide] | ≤ 5
Cc1ccc(C(N)=O)cc1-c1ccc2c(N3C[C@@H](C)OC[C@H]3C)nncc2c1 [Example 171, 3-{1-[(2R,5R)-2,5-dimethylmorpholin-4-yl]phthalazin-6-yl}-4-methylbenzamide] | ≤ 5
Cc1ccc(C(=O)NC2CC2)cc1-c1ccc2c(NC(C)C)nncc2c1 [Example 172, N-cyclopropyl-3-[1-(isopropylamino)phthalazin-6-yl]-4-methylbenzamide] | ≤ 5
Cc1ccc(C(=O)NC2CC2)cc1-c1ccc2c(N3C[C@H](C)OC[C@H]3C)nncc2c1 [Example 173, N-cyclopropyl-3-{1-[(2S,5R)-2,5-dimethylmorpholin-4-yl]phthalazin-6-yl}-4-methylbenzamide] | ≤ 5
Cc1ccc(C(=O)NC2CC2)cc1-c1ccc2c(N3C[C@@H](C)OC[C@H]3C)nncc2c1 [Example 174, N-cyclopropyl-3-{1-[(2R,5R)-2,5-dimethylmorpholin-4-yl]phthalazin-6-yl}-4-methylbenzamide] | ≤ 5
Cc1ccc(C(N)=O)cc1-c1ccc2c(N3CCOCC3)nncc2c1 [Example 175, 4-methyl-3-(1-morpholin-4-ylphthalazin-6-yl)benzamide] | ≤ 5
Cc1ccc(C(N)=O)cc1-c1ccc2c(-c3ccccc3C)nncc2c1 [Example 176, 4-methyl-3-[1-(2-methylphenyl)phthalazin-6-yl]benzamide] | ≤ 5
NC(=O)c1ccc(F)c(-c2ccc3c(N4CCOCC4)nncc3c2)c1 [Example 177, 4-fluoro-3-(1-morpholin-4-ylphthalazin-6-yl)benzamide] | ≤ 5
Cc1ccc(C(=O)NC2CC2)cc1-c1ccc2c(N3CCOC[C@@H]3C)nncc2c1 [Example 178, N-cyclopropyl-4-methyl-3-{1-[(3S)-3-methylmorpholin-4-yl]phthalazin-6-yl}benzamide] | ≤ 5
Cc1ccc(C(N)=O)cc1-c1ccc2c(NC(C)C)nncc2c1 [Example 179, 3-[1-(isopropylamino)phthalazin-6-yl]-4-methylbenzamide] | ≤ 5
Cc1ccc(C(=O)NC2CC2)cc1-c1ccc2c(N3CCCC[C@H]3C)nncc2c1 [Example 180, N-cyclopropyl-4-methyl-3-{1-[(2R)-2-methylpiperidin-1-yl]phthalazin-6-yl}benzamide] | ≤ 5
CNC(=O)c1ccc(C)c(-c2ccc3c(N4CCOCC4)nncc3c2)c1 [Example 181, N,4-dimethyl-3-(1-morpholin-4-ylphthalazin-6-yl)benzamide] | ≤ 5
Cc1ccc(C(N)=O)cc1-c1ccc2c(N3CCCC[C@H]3C)nncc2c1 [Example 182, 4-methyl-3-{1-[(2R)-2-methylpiperidin-1-yl]phthalazin-6-yl}benzamide] | ≤ 5
